Activity calls are given as the source filed them.
Key:
[1] = target: T1, Oxysterols receptor LXR-beta (Homo sapiens, UniProt P55055); format: functional, cell-based;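 also: Cell-based luminescence dose-response assay of agonist activity at LXR, run as a confirmatory counterscreen to a daf-12 agonist screen; HEK293 cells with Gal4-LXR fusion and GAL4-driven luciferase reporter; agonist potency from rising luciferase signal of a Gal4-LXR reporter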
T1 sequence (P55055 whole entry): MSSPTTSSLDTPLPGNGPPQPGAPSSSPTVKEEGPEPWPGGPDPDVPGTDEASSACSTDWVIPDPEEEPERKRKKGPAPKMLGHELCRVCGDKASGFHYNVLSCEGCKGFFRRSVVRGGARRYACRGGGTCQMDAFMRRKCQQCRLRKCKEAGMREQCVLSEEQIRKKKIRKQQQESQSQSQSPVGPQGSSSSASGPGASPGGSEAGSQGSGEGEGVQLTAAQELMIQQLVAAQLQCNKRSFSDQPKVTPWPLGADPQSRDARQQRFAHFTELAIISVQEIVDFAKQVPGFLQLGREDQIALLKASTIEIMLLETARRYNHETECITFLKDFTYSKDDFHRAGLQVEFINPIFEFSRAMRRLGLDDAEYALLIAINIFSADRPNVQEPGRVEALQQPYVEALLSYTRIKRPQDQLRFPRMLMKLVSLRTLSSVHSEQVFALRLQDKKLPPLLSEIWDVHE

[2] = cells
[3] = Luminescence-based cell-based high throughput dose response assay to identify activators of the DAF-12 from the parasite S. stercoralis (ssDAF-12).; format: functional
[4] = microbe, parasite or virus in culture; format: functional; settings: Mycobacterium tuberculosis
[5] = cells; remark: listed apart in the source
[6] = Trypanosoma cruzi growth suppression in host cells – NIH3T3 host cells, beta-gal luminescence, confirmation (AID 2044); format: functional, cell-based;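 also: intracellular parasites grown in NIH/3T3 mouse fibroblasts as host cells; luminescent beta-galactosidase reporter signal from transgenic T. cruzi replicating inside host cells; inhibitors lower the luminescence signal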
[7] = NIH3T3 cell viability loss – ATP luminescence, mouse fibroblasts, counter-screen, dose response (AID 2010); format: functional, cell-based;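 also: cells exposed to compound for about 90 hours before reading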
[8] = inhibition of ADAM10 peptide cleavage – biochemical, FRET peptide substrate, recombinant human ADAM10, selectivity assay for ADAM17 exosite inhibitor project, dose response (AID 743259);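 also: ADAM10 enzyme cleaving a FRET peptide substrate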
[9] = target: Disintegrin and metalloproteinase domain-containing protein 17 (Homo sapiens, UniProt P78536); assay: exosite inhibitors of ADAM17, dose response, biochemical (AID 743260)
[10] = target: Albumin (Bos taurus, UniProt P02769); assay: Counterscreen for inhibitors of T-cell receptor (TCR)-CD3 interaction: Fluorescence-based biochemical high throughput dose response assay to identify inhibitors of T-cell receptor (TCR)-CD3 interaction using a TAMRA-labeled BSA probe.; format: functional
[11] = target: T2, RNA-binding protein pos-1 (Caenorhabditis elegans, UniProt G5EF15); assay: disruptors of C. elegans POS-1 RNA interaction – biochemical, fluorescence polarization, dose response (AID 1964);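 also: purified POS-1 fused to maltose binding protein made in E. coli; potency of compounds blocking POS-1 binding to fluorescent RNA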
T2 sequence (G5EF15 whole entry): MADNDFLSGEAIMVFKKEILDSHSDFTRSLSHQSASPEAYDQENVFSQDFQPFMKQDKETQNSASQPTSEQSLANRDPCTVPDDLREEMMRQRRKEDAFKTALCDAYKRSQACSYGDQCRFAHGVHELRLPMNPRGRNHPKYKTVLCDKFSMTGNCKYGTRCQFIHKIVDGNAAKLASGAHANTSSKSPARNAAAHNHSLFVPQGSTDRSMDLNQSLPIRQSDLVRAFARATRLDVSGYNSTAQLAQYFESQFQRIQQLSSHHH

[12] = target: T3, Zinc finger protein mex-5 (Caenorhabditis elegans, UniProt Q9XUB2); assay: potency of MEX-5 RNA-binding blockers – biochemical, C. elegans, fluorescence polarization, dose response (AID 1960)
T3 sequence (Q9XUB2 whole entry): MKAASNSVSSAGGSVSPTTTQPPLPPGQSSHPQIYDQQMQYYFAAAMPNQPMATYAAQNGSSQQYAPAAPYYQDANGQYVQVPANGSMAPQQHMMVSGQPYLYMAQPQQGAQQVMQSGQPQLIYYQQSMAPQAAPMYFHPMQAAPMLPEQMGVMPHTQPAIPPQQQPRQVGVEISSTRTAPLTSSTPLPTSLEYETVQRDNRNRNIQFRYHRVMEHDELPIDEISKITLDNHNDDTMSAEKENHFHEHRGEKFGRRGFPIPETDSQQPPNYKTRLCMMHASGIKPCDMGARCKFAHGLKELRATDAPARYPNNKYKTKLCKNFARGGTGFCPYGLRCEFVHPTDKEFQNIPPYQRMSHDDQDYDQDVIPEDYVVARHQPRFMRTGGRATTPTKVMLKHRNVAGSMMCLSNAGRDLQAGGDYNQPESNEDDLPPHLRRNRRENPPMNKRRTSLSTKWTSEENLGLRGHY

[13] = target: Mitogen-activated protein kinase 10 (Homo sapiens, UniProt P53779); assay: Dose response biochemical screening assay for inhibitors of c-Jun N-Terminal Kinase 3 (JNK3). [Related pubchem assays: 746 ]
[14] = reduced cellular PGC1a acetyl-lysine signal – cell-based, cherry-picked samples, dose response (AID 720514); format: functional;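 also: potency may reflect raised or lowered acetylation signal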
[15] = target: FAD-linked sulfhydryl oxidase ALR (Homo sapiens, UniProt P55789); assay: ALR-catalysed DTT oxidation blockers – biochemical, H2O2 detection, luminescence, cherry-pick, dose response (AID 493248)
[16] = target: T4, Rac GTPase-activating protein 1 (Homo sapiens, UniProt Q9H0H5); assay: blockers of MgcRacGAP-driven Rac1 GTP hydrolysis – biochemical, ADP Hunter fluorescence, primary and confirmatory, confirmation (AID 624330); format: functional
T4 sequence (Q9H0H5 whole entry): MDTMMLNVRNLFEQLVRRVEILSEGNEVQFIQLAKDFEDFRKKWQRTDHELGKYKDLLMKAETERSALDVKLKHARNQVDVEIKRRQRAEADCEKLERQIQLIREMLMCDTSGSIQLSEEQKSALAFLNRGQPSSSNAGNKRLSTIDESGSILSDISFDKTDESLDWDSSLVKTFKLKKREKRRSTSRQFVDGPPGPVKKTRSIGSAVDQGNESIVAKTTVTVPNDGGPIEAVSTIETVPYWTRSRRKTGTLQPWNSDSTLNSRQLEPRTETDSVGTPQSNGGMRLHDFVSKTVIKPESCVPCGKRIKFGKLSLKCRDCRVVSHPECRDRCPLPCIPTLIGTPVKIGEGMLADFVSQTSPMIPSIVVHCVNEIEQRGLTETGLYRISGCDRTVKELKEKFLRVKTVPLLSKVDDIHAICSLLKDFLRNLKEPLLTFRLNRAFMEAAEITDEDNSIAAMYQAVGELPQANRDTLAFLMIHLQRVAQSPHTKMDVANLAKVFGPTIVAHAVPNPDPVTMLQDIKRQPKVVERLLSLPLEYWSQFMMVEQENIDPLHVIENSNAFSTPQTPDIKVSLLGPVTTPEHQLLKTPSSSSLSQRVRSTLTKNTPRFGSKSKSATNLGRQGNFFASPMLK

[17] = target: Paired box protein Pax-8 (Homo sapiens, UniProt Q06710); assay: PAX8 transcriptional activity inhibition in RMG-I – RMG-I cells, luciferase, cherry-pick, dose response (AID 687027); format: functional, cell-based;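 also: luciferase reporter driven by Pax8 target thyroperoxidase promoter measured by SteadyGlo luminescence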
[18] = general cell-killing toxicity readout – plate reader, dry powder samples, cytotoxicity control for PAX8 inhibitor project, dose response (AID 743021); format: functional, cell-based
[19] = test system: H9c2; assay: cells; format: functional, cell-based; settings: Rattus norvegicus, H9c2, Myocardium;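 also: confirmatory concentration-response retest of ultra-high-throughput screening hits for modulation of myocardial damage; cell death induced by hydrogen peroxide oxidative stress; compound pretreatment for 60 min then peroxide exposure for 2 h; potency is for protecting the cells against peroxide damage rather than for killing them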
[20] = Luminescence Cell-Based Dose Response HTS to Identify Inhibitors of 5'UTR Stem-Loop Driven Prion Protein mRNA Translation in H4 Neuroglioblastoma Cells. [Related pubchem assays: 1827 (Project Summary), 1813 (Primary HTS)]; format: functional
[21] = alpha-synuclein stem-loop luciferase translation blockers – H4 neuroglioma cells, luminescence, confirmation (AID 1988); format: functional, cell-based
[22] = P. falciparum Dd2 growth inhibitors, dose response, SYBR Green, cherry-picked samples (AID 1159567); format: functional, cell-based
[23] = growth inhibition of PfATP4-mutant resistant parasites – NITD609-resistant line, SYBR Green, dry powder, dose response (AID 1159571); format: functional, cell-based;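 also: parasites synchronized at ring stage by sorbitol before testing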
[24] = growth inhibition of yeast DHODH-expressing 3D7 parasites – SYBR Green, dry powder samples, dose response (AID 1159570); format: functional, cell-based;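 also: parasite growth measured after 72 hours of compound exposure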
[25] = Dd2 malaria parasite growth inhibition potency – SYBR Green, dry powder samples, dose response (AID 1159566); format: functional, cell-based;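 also: potency for growth inhibition with lower SYBR green DNA signal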
[26] = toxicity to human HepG2 hepatoma cells – cell-based, plate reader, dry powder samples, cytotoxicity control, dose response (AID 1159569); format: functional;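 also: inhibitor potency with signal falling toward the positive control level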
[27] = toxicity to human hepatoma HepG2 cells – cell-based, cherry-picked samples, cytotoxicity control, dose response (AID 1159577); format: functional

Sequence of Albumin (P02769 whole entry, the tested form may be a part): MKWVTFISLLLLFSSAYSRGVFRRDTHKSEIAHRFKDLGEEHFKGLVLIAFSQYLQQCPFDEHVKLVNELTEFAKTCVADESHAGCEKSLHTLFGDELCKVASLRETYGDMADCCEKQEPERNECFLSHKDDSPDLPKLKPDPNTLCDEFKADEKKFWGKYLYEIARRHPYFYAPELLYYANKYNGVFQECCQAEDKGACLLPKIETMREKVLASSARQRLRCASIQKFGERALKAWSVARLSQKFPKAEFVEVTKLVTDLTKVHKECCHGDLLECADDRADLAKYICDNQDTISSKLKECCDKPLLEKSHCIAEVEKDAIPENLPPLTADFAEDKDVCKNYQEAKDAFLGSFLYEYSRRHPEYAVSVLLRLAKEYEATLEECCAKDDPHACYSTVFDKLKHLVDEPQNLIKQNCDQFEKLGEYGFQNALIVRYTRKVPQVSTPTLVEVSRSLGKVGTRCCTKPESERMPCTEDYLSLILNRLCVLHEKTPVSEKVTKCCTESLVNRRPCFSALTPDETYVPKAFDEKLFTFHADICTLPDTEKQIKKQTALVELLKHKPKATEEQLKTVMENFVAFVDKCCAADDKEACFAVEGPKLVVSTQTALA
Sequence of Disintegrin and metalloproteinase domain-containing protein 17 (P78536 whole entry, the tested form may be a part): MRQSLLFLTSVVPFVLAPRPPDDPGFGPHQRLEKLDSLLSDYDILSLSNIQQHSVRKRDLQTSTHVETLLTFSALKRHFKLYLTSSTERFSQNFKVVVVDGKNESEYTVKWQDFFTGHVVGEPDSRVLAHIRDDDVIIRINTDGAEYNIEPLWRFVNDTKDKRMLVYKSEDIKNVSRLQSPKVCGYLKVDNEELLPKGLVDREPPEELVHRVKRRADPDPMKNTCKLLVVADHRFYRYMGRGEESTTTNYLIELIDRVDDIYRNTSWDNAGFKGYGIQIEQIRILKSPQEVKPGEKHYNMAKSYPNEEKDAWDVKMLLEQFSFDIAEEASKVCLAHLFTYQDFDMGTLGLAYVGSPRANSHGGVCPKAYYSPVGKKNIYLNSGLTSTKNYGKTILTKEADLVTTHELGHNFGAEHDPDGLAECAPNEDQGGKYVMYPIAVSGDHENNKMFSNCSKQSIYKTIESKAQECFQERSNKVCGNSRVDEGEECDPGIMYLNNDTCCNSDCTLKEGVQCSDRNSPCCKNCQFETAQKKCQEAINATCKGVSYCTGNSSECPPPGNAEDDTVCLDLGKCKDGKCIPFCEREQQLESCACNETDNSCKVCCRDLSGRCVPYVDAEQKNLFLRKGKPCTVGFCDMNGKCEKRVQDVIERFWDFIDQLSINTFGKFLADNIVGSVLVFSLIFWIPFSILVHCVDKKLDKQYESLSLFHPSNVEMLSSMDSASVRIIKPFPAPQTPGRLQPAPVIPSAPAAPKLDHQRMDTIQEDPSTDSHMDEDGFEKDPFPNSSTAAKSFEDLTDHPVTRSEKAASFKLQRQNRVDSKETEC
Sequence of FAD-linked sulfhydryl oxidase ALR (P55789 whole entry): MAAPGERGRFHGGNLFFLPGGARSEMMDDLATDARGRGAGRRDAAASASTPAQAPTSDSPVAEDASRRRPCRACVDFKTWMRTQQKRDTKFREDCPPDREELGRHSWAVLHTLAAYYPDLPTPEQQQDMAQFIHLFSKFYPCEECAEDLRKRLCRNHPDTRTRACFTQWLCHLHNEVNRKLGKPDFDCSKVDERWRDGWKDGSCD
Sequence of Paired box protein Pax-8 (Q06710 whole entry): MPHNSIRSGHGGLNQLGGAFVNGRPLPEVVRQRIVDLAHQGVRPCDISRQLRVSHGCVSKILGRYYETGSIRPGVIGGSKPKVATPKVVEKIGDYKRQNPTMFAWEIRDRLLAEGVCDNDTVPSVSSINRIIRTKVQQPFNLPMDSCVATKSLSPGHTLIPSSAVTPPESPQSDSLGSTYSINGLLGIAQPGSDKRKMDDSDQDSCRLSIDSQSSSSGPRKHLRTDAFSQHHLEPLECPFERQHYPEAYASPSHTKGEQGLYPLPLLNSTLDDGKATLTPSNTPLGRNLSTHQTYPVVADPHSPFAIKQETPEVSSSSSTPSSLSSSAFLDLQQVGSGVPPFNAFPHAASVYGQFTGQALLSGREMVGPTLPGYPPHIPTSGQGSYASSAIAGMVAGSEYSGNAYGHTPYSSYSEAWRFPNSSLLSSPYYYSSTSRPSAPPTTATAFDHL
Sequence of Mitogen-activated protein kinase 10 (P53779 whole entry): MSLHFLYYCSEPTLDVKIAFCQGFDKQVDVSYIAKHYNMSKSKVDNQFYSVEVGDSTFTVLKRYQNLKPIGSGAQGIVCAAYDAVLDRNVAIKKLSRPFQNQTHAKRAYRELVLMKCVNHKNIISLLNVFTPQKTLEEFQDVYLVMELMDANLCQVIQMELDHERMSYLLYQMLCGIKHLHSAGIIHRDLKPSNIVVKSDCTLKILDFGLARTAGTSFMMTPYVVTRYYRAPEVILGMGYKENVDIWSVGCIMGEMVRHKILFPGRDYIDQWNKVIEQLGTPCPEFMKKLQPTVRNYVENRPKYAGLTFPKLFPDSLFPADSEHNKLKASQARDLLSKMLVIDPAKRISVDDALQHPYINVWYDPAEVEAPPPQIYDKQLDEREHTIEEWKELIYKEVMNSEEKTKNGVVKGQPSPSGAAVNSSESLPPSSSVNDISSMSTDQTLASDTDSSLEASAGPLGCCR

With `CCc1ccc(-n2nc3cc(C)c(N)cc3n2)cc1` the EC50 [1] was > 67.5 µM (inactive), the EC50 [2] was > 67.5 µM (inactive) and the IC50 [3] was > 67.5 µM (inactive). For the same compound, the CC50 [4] was > 40 µM (active).
With `CC1(c2ccccc2)CC(C)(C)N(C(=O)c2cc([N+](=O)[O-])cc([N+](=O)[O-])c2)c2ccccc21` (stereo not given) the EC50 [5] was 0.214 µM (active), the EC50 [6] was < 0.1 µM (active) and the EC50 [7] was 5.58 µM (active).
For `O=C(NC(=S)Nc1ccc2c(c1)OCCO2)c1cccc2ccccc12`, the IC50 [8] was > 69.5 µM (inactive) and the IC50 [9] was > 69.5 µM (inactive).
With `O=C(NNC(=O)c1cc(Cl)ccc1O)c1cccc(S(=O)(=O)N2CCOCC2)c1` the IC50 [10] was > 94.1 µM (inactive), the EC50 [11] was 18.7 µM (inconclusive) and the EC50 [12] was 11.6 µM (active).
With `COc1cccc2c(O)c(C/C=C(/C)Cl)c(C)nc12` the IC50 [13] was 75 µM (not active).
For `O=C1c2cccc(OCC(=O)N3CCCc4ccccc43)c2CCN1Cc1ccc(Br)cc1`, the IC50 [8] was > 69.5 µM (inactive) and the IC50 [9] was > 69.5 µM (inactive).
With `COC(=O)c1nn(-c2ccccc2)ccc1=O` the AC50 [14] was 5.56 µM (active).
For `Cc1ccc(NC(=O)COC(=O)/C(=C/c2cccs2)c2cccs2)cc1S(=O)(=O)N(C)C`, the IC50 [8] was > 69.5 µM (inactive) and the IC50 [9] was > 69.5 µM (inactive).
With `Cc1cccc(N2C(=O)/C(=C\NNC(=O)c3ccccc3Cl)c3ccccc3C2=O)n1` the IC50 [10] was > 94.1 µM (inactive) and the AC50 [15] was 9.36 µM (active).
For `Cc1ccc(O)c(-c2cc(C(=O)Nc3ccc(S(=O)(=O)Nc4nccc(C)n4)cc3)[nH]n2)c1`, the IC50 [10] was > 94.1 µM (inactive), the EC50 [11] was 13.1 µM (inconclusive) and the EC50 [12] was 6.59 µM (active).
For `Cc1cc(Cl)c(OCCOCCN2CCN(C)CC2)c(Br)c1`, the EC50 [5] was 0.294 µM (active), the EC50 [6] was < 0.1 µM (active) and the IC50 [16] was 63.9 µM (active). The EC50 [7] was > 60 µM (not active).
For `Cc1ccc(-c2nnc(-c3cccc4ccccc34)o2)cc1`, the EC50 [1] was > 67.5 µM (inactive) and the EC50 [2] was > 67.5 µM (inactive).
In the case of `CCC(c1nnnn1Cc1ccccc1)N1CCC(n2c(O)nc3ccccc32)CC1` (stereo not given), the AC50 [17] is reported as 3.8 µM (active), the AC50 [18] is reported as 41.4 µM (active) and the IC50 [19] is reported as > 79 µM (inactive).
For `C[C@@H]1CN([C@@H](C)CO)C(=O)c2c(c3ccccc3n2C)-c2ccccc2CO[C@H]1CN(C)S(=O)(=O)c1ccsc1`, the AC50 [14] was 29.2 µM (active).
In the case of `CC(=O)Nc1sc2c(c1-c1nc3ccccc3s1)CCCN(C(C)C)C2`, the IC50 [3] is reported as > 67.5 µM (inactive).
In the case of `Cc1ccc2c(c1)s/c(=N/C(=O)c1cccs1)n2C`, the EC50 [1] is reported as > 67.6 µM (inactive), the EC50 [2] is reported as > 67.6 µM (inactive) and the EC50 [20] is reported as 4.15 µM (active). For the same compound, the EC50 [21] was 4.79 µM (active).
With `C[C@@H]1CN([C@@H](C)CO)S(=O)(=O)c2ccc(/C=C/c3ccccc3)cc2O[C@H]1CN(C)C(=O)c1ccc2c(c1)OCO2` the AC50 [22] was 2.43 µM (active), the AC50 [23] was 1.18 µM (active) and the AC50 [24] was 2.96 µM (active). For the same compound, the AC50 [25] was 2.09 µM (active) and the AC50 [26] was 87.3 µM (active).
With `COc1ccc2c3c(n(C)c2c1)[C@H](CO)NCC31CCN(CC2CCCC2)CC1` the AC50 [22] was 0.738 µM (active), the AC50 [23] was 0.425 µM (active) and the AC50 [24] was 0.449 µM (active). For the same compound, the AC50 [25] was 0.481 µM (active), the AC50 [27] was 35.5 µM (active) and the AC50 [26] was 46.3 µM (active).
With `COc1ccccc1S(=O)(=O)N(C)C[C@@H]1Oc2cc(C#CCC3CCCC3)ccc2S(=O)(=O)N([C@H](C)CO)C[C@H]1C` the AC50 [22] was 0.309 µM (active), the AC50 [23] was 0.104 µM (active) and the AC50 [24] was 0.227 µM (active). For the same compound, the AC50 [25] was 0.146 µM (active), the AC50 [27] was 28.6 µM (active) and the AC50 [26] was 23.8 µM (active).

— ChEMBL document CHEMBL1201862, “PubChem BioAssay data set” (2004)
